Experimental data from patent publication US20180153848A1, “CABAZITAXEL FAT EMULSION, AND PREPARATION METHOD AND USE THEREOF” (JIANGSU TASLY DIYI PHARMACEUTICAL CO., LTD., priority 2015, published 2018).

Tests used:
[1] = Investigation on the solubility of cabazitaxel in oils for injection, with low temperature challenge test; type: physicochemical; design: key to dissolved state in oil for injection: —: Completely insoluble; settings: for dissolved state in oil for injection: 70° C. with stirring
Experimental: In this Test Example, appropriate amounts of cabazitaxel were weighed, respectively placed into medium chain triglyceride for injection, soybean oil, olive oil, castor oil and palm oil at 70° C., and heated with stirring, to observe the dissolved state thereof. The solutions with the drug dissolved were stored at a condition of 4-6° C. for 72 hours, to perform a low temperature challenge test. The appearance changes of the solutions at 72 hours in the low temperature storage were observed.

[2] = cited from earlier work
Beagle dogs = settings: intravenous injection of 0.3% or 0.35% Tween-80; cited from earlier work

## CO[C@H]1C(=O)[C@]2(C)[C@@H](OC)C[C@H]3OC[C@@]3(OC(C)=O)[C@H]2[C@H](OC(=O)c2ccccc2)[C@]2(O)C[C@H](OC(=O)[C@H](O)[C@@H](NC(=O)OC(C)(C)C)c3ccccc3)C(C)=C1C2(C)C [cabazitaxel, 4-acetyloxy-2α-benzoyloxy-5β,20-epoxy-1-hydroxy-7β, 10β-dimethoxy-9-oxotax-11-en-13 α-yl(2R,3S)-3-t-butoxycarbonylamino-2-hydroxy-3-phenylpropionate]
[1]
  solubility in medium chain triglycerides: about 50 mg/g
[1]; after storage at low temperature (4-6° C.) for 72 h
  solubility in medium chain triglyceride for injection: about 50 mg/g
[1]; castor oil, Concentration (mg/g) 10 h
  dissolved state in oil for injection: cannot be fully dissolved
[1]; castor oil, Concentration (mg/g) 20 h
  dissolved state in oil for injection: —
[1]; castor oil, Concentration (mg/g) 30 h
  dissolved state in oil for injection: —
[1]; castor oil, Concentration (mg/g) 40 h
  dissolved state in oil for injection: —
[1]; castor oil, Concentration (mg/g) 50 h
  dissolved state in oil for injection: —
[1]; castor oil, Concentration (mg/g) 60 h
  dissolved state in oil for injection: —
[1]; long chain oils such as soybean oil, olive oil, castor oil, palm oil
  solubility in long chain oils: less than 10 mg/g
[1]; medium chain triglyceride, Concentration (mg/g) 60 h
  dissolved state in oil for injection: rapidly dissolved
[1]; olive oil, Concentration (mg/g) 10 h
  dissolved state in oil for injection: cannot be fully dissolved
[1]; olive oil, Concentration (mg/g) 20 h
  dissolved state in oil for injection: —
[1]; olive oil, Concentration (mg/g) 30 h
  dissolved state in oil for injection: —
[1]; olive oil, Concentration (mg/g) 40 h
  dissolved state in oil for injection: —
[1]; olive oil, Concentration (mg/g) 50 h
  dissolved state in oil for injection: —
[1]; olive oil, Concentration (mg/g) 60 h
  dissolved state in oil for injection: —
[1]; palm oil, Concentration (mg/g) 10 h
  dissolved state in oil for injection: cannot be fully dissolved
[1]; palm oil, Concentration (mg/g) 20 h
  dissolved state in oil for injection: —
[1]; palm oil, Concentration (mg/g) 30 h
  dissolved state in oil for injection: —
[1]; palm oil, Concentration (mg/g) 40 h
  dissolved state in oil for injection: —
[1]; palm oil, Concentration (mg/g) 50 h
  dissolved state in oil for injection: —
[1]; palm oil, Concentration (mg/g) 60 h
  dissolved state in oil for injection: —
[1]; soybean oil, Concentration (mg/g) 10 h
  dissolved state in oil for injection: cannot be fully dissolved
[1]; soybean oil, Concentration (mg/g) 20 h
  dissolved state in oil for injection: —
[1]; soybean oil, Concentration (mg/g) 30 h
  dissolved state in oil for injection: —
[1]; soybean oil, Concentration (mg/g) 40 h
  dissolved state in oil for injection: —
[1]; soybean oil, Concentration (mg/g) 50 h
  dissolved state in oil for injection: —
[1]; soybean oil, Concentration (mg/g) 60 h
  dissolved state in oil for injection: —
[2]
  solubility in ethanol and other organic solvents: soluble
  solubility in water: almost insoluble

## Tween-80
Beagle dogs
  grade of allergic reactions: ≥ 3
